Measured values as given in patent US20110071150A1 (priority 2009, published 2011).

System: Jurkat IL-2 Production
Experiment: Jurkat IL-2 Production Assay
Assay type: cell-based
Details: Homo sapiens, Jurkat cell (ATCC), 18-20 h incubation, PHA 5 μg/mL with 1% FBS, or PMA/Ionomycin with 30% FBS (table does not say which)
Protocol: Jurkat IL-2 Production Assay
Cell: Jurkat cell (ATCC) was grown in RPMI 1640 with 10% FBS and 1% penicillin/streptomycin. The cell density was kept at 1.2-1.8×10^6/mL in culture flask before seeding into culture plate, and the cell density in the plate was 0.5×10^6/[…]/well.
Culture media: RPMI 1640 with 1% FBS or 30% FBS for high serum assay.
Test compound: serial dilution was done in 100% DMSO, and intermediate dilution was done with RPMI 1640 medium with 1% FBS. The DMSO final concentration in culture well was 0.25%.
Stimulant: PHA (Sigma#L9017-10MG) was used for the assay with 1% FBS in culture medium, and added after 10 minutes exposure of cell to compound/DMSO. The PHA final concentration in culture well was 5 μg/mL. PMA (Sigma# P-8139 5MG)/Ionomycin (Sigma# 10634-5MG) was used for the assay with 30% FBS in culture medium, and added at same time point as the 1% FBS culture assay. The final concentration of PMA was 50 ng/mL, and Ionomycin final concentration was 500 ng/mL.
Incubation: at 37° C. with 5% CO2 and 95% humidity for 18 h˜20 h.
IC50: IC50 was calculated with the data analysis software XLfit4, General Pharmacology model 251.

Row | Structure (SMILES) | IC50 [nM]
1 | Cn1nc(-c2cccnc2)nc1-c1ccc2[nH]c(-c3c(F)cccc3Cl)cc2c1 [Example 116, 2-(2-Chloro-6-fluoro-phenyl)-5-(2-methyl-5-pyridin-3-yl-2H-[1,2,4]-triazol-3-yl)-1H-indole] | 12
2 | Cc1sc(-c2ccnnc2)nc1-c1ccc2[nH]c(-c3c(F)cccc3F)cc2c1 [Example 105, 2-(2,6-Difluoro-phenyl)-5-(5-methyl-2-pyridazin-4-yl-thiazol-4-yl)-1H-indole] | 664
3 | Cc1cc(OC(F)(F)F)ccc1-c1ccc2[nH]c(-c3c(F)cccc3F)cc2c1 [Example 100, 2-(2,6-Difluoro-phenyl)-5-(2-methyl-4-trifluoromethoxy-phenyl)-1H-indole] | 307
4 | Cc1sc(-c2cccnc2)nc1-c1ccc2[nH]c(-c3c(F)cccc3Cl)cc2c1 [Example 50, 2-(2-Chloro-6-fluoro-phenyl)-5-(5-methyl-2-pyridin-3-yl-thiazol-4-yl)-1H-indole] | 13
5 | Cn1nc(-c2ccncc2)cc1-c1ccc2[nH]c(-c3c(F)cccc3Cl)cc2c1 [Example 51, 2-(2-Chloro-6-fluoro-phenyl)-5-(2-methyl-5-pyridin-4-yl-2H-pyrazol-3-yl)-1H-indole] | 524
6 | Cc1cc(C#N)ccc1-c1ccc2[nH]c(-c3c(F)cc(O)cc3F)cc2c1 [Example 157, 4-(2-(2,6-difluoro-4-hydroxyphenyl)-1H-indol-5-yl)-3-methylbenzonitrile] | 222
7 | CCn1nc(-c2cnccn2)cc1-c1ccc2[nH]c(-c3c(F)cccc3Cl)cc2c1 [Example 183, 2-(2-chloro-6-fluorophenyl)-5-(1-ethyl-3-(pyrazin-2-yl)-1H-pyrazol-5-yl)-1H-indole] | 28
8 | CCn1nc(-c2cccnc2)cc1-c1ccc2[nH]c(-c3c(F)cccc3F)cc2c1 [Example 20, 2-(2,6-Difluoro-phenyl)-5-(2-ethyl-5-pyridin-3-yl-2H-pyrazol-3-yl)-1H-indole] | 101
9 | CCn1nc(C(F)(F)F)cc1-c1ccc2[nH]c(C3=CCCCC3)cc2c1 [Example 195, 2-cyclohexenyl-5-[1-ethyl-3-{trifluoromethyl}-1H-pyrazol-5-yl]-1H-indole] | 782
10 | Cc1cccc(F)c1-c1cc2cc(-c3nc(-c4ccccn4)sc3C)ccc2[nH]1 [Example 221, 2-(2-Fluoro-6-methyl-phenyl)-5-(5-methyl-2-pyridin-2-yl-thiazol-4-yl)-1H-indole] | 95
11 | Cc1sc(-c2ncco2)nc1-c1ccc2[nH]c(-c3c(F)cccc3Cl)cc2c1 [Example 125, 2-(2-Chloro-6-fluoro-phenyl)-5-(5-methyl-2-oxazol-2-yl-thiazol-4-yl)-1H-indole] | 49
12 | Cc1sc(-c2ccccn2)nc1-c1ccc2[nH]c(-c3c(F)cccc3F)cc2c1 [Example 4, 2-(2,6-Difluoro-phenyl)-5-(5-methyl-2-pyridin-2-yl-thiazol-4-yl)-1H-indole] | 219
13 | COc1cc(C)c(-c2ccc3[nH]c(-c4cnccc4C)cc3c2)cn1 [Example 216, 5-(6-Methoxy-4-methyl-pyridin-3-yl)-2-(4-methyl-pyridin-3-yl)-1H-indole] | 110
14 | COc1ncc(-c2ccc3[nH]c(-c4c(F)cccc4F)cc3c2)c(OC)n1 [Example 93, 2-(2,6-Difluoro-phenyl)-5-(2,4-dimethoxy-pyrimidin-5-yl)-1H-indole] | 921
15 | Cn1nc(C(F)(F)F)cc1-c1ccc2[nH]c(C3CCCCC3)cc2c1 [Example 222] | 40
16 | Cc1sc(-c2ncco2)nc1-c1ccc2[nH]c(-c3c(F)cccc3F)cc2c1 [Example 73, 2-(2,6-Difluoro-phenyl)-5-(5-methyl-2-oxazol-2-yl-thiazol-4-yl)-1H-indole] | 60
17 | Cc1cc(S(=O)(=O)N(C)C)cnc1-c1ccc2[nH]c(-c3c(F)cccc3Cl)cc2c1 [Example 167, 6-(2-(2-chloro-6-fluorophenyl)-1H-indol-5-yl)-N,N,5-trimethylpyridine-3-sulfonamide] | 34
18 | Cn1nc(C2CC2)cc1-c1ccc2[nH]c(-c3c(F)cccc3F)cc2c1 [Example 63, 5-(5-Cyclopropyl-2-methyl-2H-pyrazol-3-yl)-2-(2,6-difluoro-phenyl)-1H-indole] | 368
19 | Cc1noc(C)c1-c1cc2cc(-c3cc(C(F)(F)F)nn3C)ccc2[nH]1 [Example 45, 2-(3,5-Dimethyl-isoxazol-4-yl)-5-(2-methyl-5-trifluoromethyl-2H-pyrazol-3-yl)-1H-indole] | 375
20 | Cn1nc(-c2cccnc2)nc1-c1ccc2[nH]c(-c3c(F)cccc3F)cc2c1 [Example 114, 2-(2,6-Difluoro-phenyl)-5-(2-methyl-5-pyridin-3-yl-2H-[1,2,4]triazol-3-yl)-1H-indole] | 39
21 | Cc1sc(-c2cncnc2)nc1-c1ccc2[nH]c(-c3c(F)cccc3Cl)cc2c1 [Example 177, 2-(2-Chloro-6-fluoro-phenyl)-5-(5-methyl-2-pyrimidin-5-yl-thiazol-4-yl)-1H-indole] | 82
22 | CCn1nc(C(F)(F)F)cc1-c1ccc2[nH]c(-c3c(F)cccc3Cl)cc2c1 [Example 47, 2-(2-Chloro-6-fluoro-phenyl)-5-(2-ethyl-5-trifluoromethyl-2H-pyrazol-3-yl)-1H-indole] | 40

The next lines start with the values.

Row | IC50 [nM] | Structure (SMILES)
23 | 976 | Cc1cc(C#N)ccc1-c1ccc2[nH]c(-c3ccc(S(C)(=O)=O)cc3F)cc2c1 [Example 133, 4-[2-(2-Fluoro-4-methanesulfonyl-phenyl)-1H-indol-5-yl]-3-methyl-benzonitrile]
24 | 448 | COc1ccc(-c2ccc3[nH]c(-c4c(F)cccc4Cl)cc3c2)c(C)n1 [Example 123, 2-(2-Chloro-6-fluoro-phenyl)-5-(6-methoxy-2-methyl-pyridin-3-yl)-1H-indole]
25 | 235 | Cc1cc(Cl)ncc1-c1ccc2[nH]c(-c3cnccc3C)cc2c1 [Example 215, 5-(6-Chloro-4-methyl-pyridin-3-yl)-2-(4-methyl-pyridin-3-yl)-1H-indole]
26 | 451 | Cc1cc(C(N)=O)ccc1-c1ccc2[nH]c(-c3c(F)cccc3F)cc2c1 [Example 89, 4-[2-(2,6-Difluoro-phenyl)-1H-indol-5-yl]-3-methyl-benzamide]
27 | 584 | Cc1sc(C2CC2)nc1-c1ccc2[nH]c(-c3ccccc3Cl)cc2c1 [Example 71]
28 | 91 | CCn1nc(-c2cccnc2)cc1-c1ccc2[nH]c(-c3ccccc3C)cc2c1 [Example 80, 5-(2-Ethyl-5-pyridin-3-yl-2H-pyrazol-3-yl)-2-o-tolyl-1H-indole]
29 | 71 | Cc1cc(C(F)(F)F)ccc1-c1ccc2[nH]c(-c3c(F)cccc3F)cc2c1 [Example 32, 2-(2,6-Difluoro-phenyl)-5-(2-methyl-4-trifluoromethyl-phenyl)-1H-indole]
30 | 17 | Cc1cc(-c2nnn(C)n2)ccc1-c1ccc2[nH]c(-c3c(F)cccc3Cl)cc2c1 [Example 171, 2-(2-chloro-6-fluorophenyl)-5-(2-methyl-4-(2-methyl-2H-tetrazol-5-yl)phenyl)-1H-indole]
31 | 287 | Cc1ncccc1-c1cc2cc(-c3sc(-c4ccccc4)nc3C)ccc2[nH]1 [Example 8, 5-(4-Methyl-2-phenyl-thiazol-5-yl)-2-(2-methyl-pyridin-3-yl)-1H-indole]
32 | 106 | COC(=O)c1ccc(-c2ccc3[nH]c(-c4ccccc4Cl)cc3c2)c(C)c1 [Example 126]
33 | 33 | COc1ccc(-c2ccc3[nH]c(-c4c(F)cccc4Cl)cc3c2)c(OC)c1 [Example 54, 2-(2-chloro-6-fluoro-phenyl)-5-(2,4-dimethoxy-phenyl)-1H-indole]
34 | 105 | COc1cc(C#N)ccc1-c1ccc2[nH]c(-c3cnccc3C)cc2c1 [Example 213]
35 | 843 | COc1cc(C)c(-c2ccc3[nH]c(-c4ccccc4F)cc3c2)cn1 [Example 112, 2-(2-Fluoro-phenyl)-5-(6-methoxy-4-methyl-pyridin-3-yl)-1H-indole]
36 | 86 | Cc1sc(-c2cccnc2)nc1-c1ccc2[nH]c(-c3ccccc3Cl)cc2c1 [Example 12, 2-(2-Chloro-phenyl)-5-(5-methyl-2-pyridin-3-yl-thiazol-4-yl)-1H-indole]
37 | 14 | COC(=O)c1ccc(-c2ccc3[nH]c(-c4c(F)cccc4Cl)cc3c2)c(C)c1 [Example 53, 4-[2-(2-Chloro-6-fluoro-phenyl)-1H-indol-5-yl]-3-methyl-benzoic acid methyl ester]
38 | 518 | CNc1cc(C)c(-c2ccc3[nH]c(-c4c(F)cccc4Cl)cc3c2)cn1 [Example 166, 5-(2-(2-chloro-6-fluorophenyl)-1H-indol-5-yl)-N,4-dimethylpyridin-2-amine]
39 | 991 | CNC(=O)c1ccc(-c2ccc3[nH]c(-c4ccccc4Cl)cc3c2)c(C)c1 [Example 127, 4-[2-(2-Chloro-phenyl)-1H-indol-5-yl]-3,N-dimethyl-benzamide]
40 | 19 | COC(=O)c1cc(C)c(-c2ccc3[nH]c(-c4c(F)cccc4Cl)cc3c2)cn1 [Example 117, 5-[2-(2-Chloro-6-fluoro-phenyl)-1H-indol-5-yl]-4-methyl-pyridine-2-carboxylic acid methyl ester]
41 | 25 | Cc1cc(S(=O)(=O)N(C)C)ccc1-c1ccc2[nH]c(-c3c(F)cccc3Cl)cc2c1 [Example 159, 4-[2-(2-Chloro-6-fluoro-phenyl)-1H-indol-5-yl]-3,N,N-trimethyl-benzenesulfonamide]
